From ChEMBL document CHEMBL4507276 (2021)

Key:
[1] = biological target: B1 bradykinin receptor (Homo sapiens) (UniProt P46663); assay: B1/H Eurofins-Panlabs selectivity data (BI); conditions: Compound concentration 10.0 uM
[2] = biological target: T1, Muscarinic acetylcholine receptor M2 (Homo sapiens) (UniProt P08172); assay: M2/HU Eurofins-Panlabs selectivity data (BI); conditions: Compound concentration 10.0 uM
T1 sequence (whole entry): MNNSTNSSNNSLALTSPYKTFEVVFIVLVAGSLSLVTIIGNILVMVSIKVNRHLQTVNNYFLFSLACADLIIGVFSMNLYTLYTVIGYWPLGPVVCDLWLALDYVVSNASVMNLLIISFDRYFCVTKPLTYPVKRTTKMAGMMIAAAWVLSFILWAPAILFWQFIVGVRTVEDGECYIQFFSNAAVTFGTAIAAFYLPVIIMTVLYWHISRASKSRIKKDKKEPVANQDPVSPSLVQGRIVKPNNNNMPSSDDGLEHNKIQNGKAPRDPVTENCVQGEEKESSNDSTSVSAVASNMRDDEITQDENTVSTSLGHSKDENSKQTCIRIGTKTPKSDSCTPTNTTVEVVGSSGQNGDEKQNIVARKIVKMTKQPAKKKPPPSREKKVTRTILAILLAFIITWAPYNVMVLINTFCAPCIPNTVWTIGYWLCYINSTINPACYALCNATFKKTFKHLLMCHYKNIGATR

[3] = biological target: Serine/threonine-protein kinase 16 (Homo sapiens) (UniProt O75716); assay: STK16 Invitrogen selectivity data (BI); conditions: Compound concentration 3.0 uM
Serine/threonine-protein kinase 16 (Homo sapiens), sequence (O75716 whole entry): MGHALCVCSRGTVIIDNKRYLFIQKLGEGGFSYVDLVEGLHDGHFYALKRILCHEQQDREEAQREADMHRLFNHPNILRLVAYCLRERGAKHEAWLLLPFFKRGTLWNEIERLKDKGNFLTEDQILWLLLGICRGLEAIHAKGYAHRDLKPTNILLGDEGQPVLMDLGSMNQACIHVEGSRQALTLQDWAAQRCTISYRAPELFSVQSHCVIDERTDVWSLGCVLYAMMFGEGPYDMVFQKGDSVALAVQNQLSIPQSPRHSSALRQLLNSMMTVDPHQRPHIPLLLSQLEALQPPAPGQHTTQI

[4] = system: Mast/stem cell growth factor receptor Kit (Homo sapiens), P10721 [T670I]; assay: KIT T670I Invitrogen selectivity data (BI); conditions: Compound concentration 3.0 uM
[5] = biological target: Tumor necrosis factor (Homo sapiens) (UniProt P01375); assay: TNFALPHA/H Cerep selectivity data (BI); conditions: Compound concentration 20.0 uM
Tumor necrosis factor (Homo sapiens), sequence (P01375 whole entry): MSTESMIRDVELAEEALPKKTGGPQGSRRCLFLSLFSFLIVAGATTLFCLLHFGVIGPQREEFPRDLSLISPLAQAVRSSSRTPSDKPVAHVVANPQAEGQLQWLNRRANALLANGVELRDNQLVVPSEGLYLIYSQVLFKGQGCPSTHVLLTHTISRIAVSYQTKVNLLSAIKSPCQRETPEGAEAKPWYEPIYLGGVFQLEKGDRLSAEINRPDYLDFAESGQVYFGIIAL

[6] = system: Mast/stem cell growth factor receptor Kit (Homo sapiens), P10721 [V654A]; assay: KIT_V654A Invitrogen selectivity data (BI); conditions: Compound concentration 3.0 uM
Mast/stem cell growth factor receptor Kit (Homo sapiens), P10721 [V654A], sequence (P10721 whole entry V654A): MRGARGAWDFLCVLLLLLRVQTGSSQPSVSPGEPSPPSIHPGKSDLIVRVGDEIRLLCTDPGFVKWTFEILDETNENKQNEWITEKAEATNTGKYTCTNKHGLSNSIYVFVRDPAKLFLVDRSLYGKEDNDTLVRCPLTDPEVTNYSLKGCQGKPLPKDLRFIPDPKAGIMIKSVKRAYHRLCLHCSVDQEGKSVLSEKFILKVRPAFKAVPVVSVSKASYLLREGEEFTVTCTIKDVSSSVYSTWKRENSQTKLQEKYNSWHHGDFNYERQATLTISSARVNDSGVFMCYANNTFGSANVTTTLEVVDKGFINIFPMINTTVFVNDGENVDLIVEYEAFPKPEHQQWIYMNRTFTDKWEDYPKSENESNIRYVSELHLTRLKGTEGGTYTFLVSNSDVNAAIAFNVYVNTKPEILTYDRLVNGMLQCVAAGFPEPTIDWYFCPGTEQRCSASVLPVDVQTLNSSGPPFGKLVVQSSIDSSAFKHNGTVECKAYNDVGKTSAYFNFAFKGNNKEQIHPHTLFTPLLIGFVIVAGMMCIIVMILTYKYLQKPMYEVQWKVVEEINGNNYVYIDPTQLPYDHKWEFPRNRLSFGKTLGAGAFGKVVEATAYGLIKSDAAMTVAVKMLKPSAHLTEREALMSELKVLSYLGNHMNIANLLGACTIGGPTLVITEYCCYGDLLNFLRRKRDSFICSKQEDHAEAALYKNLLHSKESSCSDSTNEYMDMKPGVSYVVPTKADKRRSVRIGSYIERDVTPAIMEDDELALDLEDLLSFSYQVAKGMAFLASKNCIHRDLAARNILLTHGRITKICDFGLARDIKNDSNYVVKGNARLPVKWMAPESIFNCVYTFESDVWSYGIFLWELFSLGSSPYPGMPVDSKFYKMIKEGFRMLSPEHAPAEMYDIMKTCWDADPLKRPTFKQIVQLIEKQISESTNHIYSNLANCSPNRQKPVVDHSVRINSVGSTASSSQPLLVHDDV

[7] = biological target: Activin receptor type-2B (Homo sapiens) (UniProt Q13705); assay: ACVR2B Invitrogen selectivity data (BI); conditions: Compound concentration 3.0 uM
Activin receptor type-2B (Homo sapiens), sequence (Q13705 whole entry): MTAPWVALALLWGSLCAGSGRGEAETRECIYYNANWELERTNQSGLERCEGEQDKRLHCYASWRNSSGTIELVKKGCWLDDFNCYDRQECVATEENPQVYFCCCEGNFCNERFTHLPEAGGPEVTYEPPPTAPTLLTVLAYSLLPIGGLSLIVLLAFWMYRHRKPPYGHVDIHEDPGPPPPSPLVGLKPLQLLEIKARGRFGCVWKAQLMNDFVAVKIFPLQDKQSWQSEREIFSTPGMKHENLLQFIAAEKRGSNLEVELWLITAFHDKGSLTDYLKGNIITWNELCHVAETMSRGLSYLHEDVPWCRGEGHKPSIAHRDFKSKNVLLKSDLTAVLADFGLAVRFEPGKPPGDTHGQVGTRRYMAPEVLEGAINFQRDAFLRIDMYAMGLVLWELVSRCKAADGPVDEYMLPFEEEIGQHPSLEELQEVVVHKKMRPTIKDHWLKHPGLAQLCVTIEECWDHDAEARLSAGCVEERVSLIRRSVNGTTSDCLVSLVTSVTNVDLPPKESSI

[8] = biological target: Nitric oxide synthase, inducible (Mus musculus) (UniProt P29477); assay: INDUC_NOS Cerep selectivity data (BI); conditions: Compound concentration 20.0 uM
Nitric oxide synthase, inducible (Mus musculus), sequence (P29477 whole entry): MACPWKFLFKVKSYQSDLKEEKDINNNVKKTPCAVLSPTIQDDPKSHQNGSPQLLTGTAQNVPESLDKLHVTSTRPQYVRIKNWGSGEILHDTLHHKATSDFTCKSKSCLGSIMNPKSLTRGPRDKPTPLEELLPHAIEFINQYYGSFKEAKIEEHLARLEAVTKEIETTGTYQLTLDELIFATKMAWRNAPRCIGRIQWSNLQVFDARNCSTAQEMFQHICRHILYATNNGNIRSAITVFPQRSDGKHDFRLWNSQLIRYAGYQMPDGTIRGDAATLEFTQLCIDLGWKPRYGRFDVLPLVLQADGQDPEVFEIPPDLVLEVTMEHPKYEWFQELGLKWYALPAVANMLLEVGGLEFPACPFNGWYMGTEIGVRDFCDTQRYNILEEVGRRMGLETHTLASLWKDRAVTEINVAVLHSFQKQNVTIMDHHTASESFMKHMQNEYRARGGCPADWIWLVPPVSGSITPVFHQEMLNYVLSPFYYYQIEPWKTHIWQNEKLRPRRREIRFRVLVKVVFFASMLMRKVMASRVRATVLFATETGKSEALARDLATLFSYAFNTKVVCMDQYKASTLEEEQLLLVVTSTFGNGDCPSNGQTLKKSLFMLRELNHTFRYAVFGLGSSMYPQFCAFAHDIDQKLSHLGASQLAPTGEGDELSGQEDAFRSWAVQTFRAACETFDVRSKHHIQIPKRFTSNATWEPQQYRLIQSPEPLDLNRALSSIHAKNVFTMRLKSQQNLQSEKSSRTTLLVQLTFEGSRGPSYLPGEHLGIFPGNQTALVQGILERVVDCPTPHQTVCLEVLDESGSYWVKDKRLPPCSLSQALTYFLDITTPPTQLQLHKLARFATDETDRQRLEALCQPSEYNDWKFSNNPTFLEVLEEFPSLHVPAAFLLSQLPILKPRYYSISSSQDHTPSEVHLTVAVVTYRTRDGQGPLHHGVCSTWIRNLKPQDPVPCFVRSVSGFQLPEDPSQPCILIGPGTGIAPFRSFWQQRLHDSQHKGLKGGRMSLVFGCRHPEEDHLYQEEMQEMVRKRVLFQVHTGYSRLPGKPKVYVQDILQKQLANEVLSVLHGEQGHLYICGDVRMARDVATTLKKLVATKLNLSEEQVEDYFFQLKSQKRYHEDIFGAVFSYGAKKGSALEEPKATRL

[9] = biological target: Angiopoietin-1 receptor (Homo sapiens) (UniProt Q02763); assay: TEK Invitrogen selectivity data (BI); conditions: Compound concentration 3.0 uM
Angiopoietin-1 receptor (Homo sapiens), sequence (Q02763 whole entry): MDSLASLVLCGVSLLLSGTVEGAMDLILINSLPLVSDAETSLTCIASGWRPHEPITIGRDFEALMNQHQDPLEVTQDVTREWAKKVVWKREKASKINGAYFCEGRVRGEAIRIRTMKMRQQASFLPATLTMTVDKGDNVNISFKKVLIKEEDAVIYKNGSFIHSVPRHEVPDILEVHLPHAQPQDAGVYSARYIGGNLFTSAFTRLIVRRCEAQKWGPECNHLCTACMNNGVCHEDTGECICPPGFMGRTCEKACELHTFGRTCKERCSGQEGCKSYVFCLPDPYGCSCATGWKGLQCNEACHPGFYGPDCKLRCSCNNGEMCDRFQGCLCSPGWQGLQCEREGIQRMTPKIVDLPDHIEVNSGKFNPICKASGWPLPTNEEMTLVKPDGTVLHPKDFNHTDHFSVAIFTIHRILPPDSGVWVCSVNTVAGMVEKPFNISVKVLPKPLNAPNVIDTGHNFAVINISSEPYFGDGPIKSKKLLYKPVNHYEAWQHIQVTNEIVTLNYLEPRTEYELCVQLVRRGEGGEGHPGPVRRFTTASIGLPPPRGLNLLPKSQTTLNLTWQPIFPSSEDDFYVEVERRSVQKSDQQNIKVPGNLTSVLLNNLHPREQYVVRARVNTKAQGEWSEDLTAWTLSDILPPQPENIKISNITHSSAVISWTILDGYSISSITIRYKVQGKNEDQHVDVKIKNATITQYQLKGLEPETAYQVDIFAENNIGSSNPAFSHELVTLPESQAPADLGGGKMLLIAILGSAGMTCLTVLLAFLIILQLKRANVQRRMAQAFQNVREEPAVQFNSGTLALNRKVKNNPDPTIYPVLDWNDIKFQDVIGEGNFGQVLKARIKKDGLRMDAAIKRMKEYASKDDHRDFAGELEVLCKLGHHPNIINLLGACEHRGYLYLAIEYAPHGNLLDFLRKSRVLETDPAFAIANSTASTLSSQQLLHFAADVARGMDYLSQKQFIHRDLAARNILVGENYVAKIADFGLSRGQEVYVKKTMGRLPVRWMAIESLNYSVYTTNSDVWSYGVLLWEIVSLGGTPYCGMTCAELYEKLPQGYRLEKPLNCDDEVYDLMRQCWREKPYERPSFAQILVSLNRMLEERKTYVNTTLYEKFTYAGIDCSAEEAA

[10] = biological target: PI3-kinase p110-delta/p85-alpha (Homo sapiens) (UniProt P27986+O00329); assay: PIK3CDPIK3R1 Invitrogen selectivity data (BI); type: protein-complex assay; conditions: Compound concentration 3.0 uM
[11] = biological target: Sodium- and chloride-dependent GABA transporter 1 (Rattus norvegicus) (UniProt P23978); assay: GABATRANS/RA Eurofins-Panlabs selectivity data (BI); conditions: Compound concentration 10.0 uM
[12] = biological target: T2, Ephrin type-A receptor 8 (Homo sapiens) (UniProt P29322); assay: EPHA8 Invitrogen selectivity data (BI); conditions: Compound concentration 3.0 uM
T2 sequence (whole entry): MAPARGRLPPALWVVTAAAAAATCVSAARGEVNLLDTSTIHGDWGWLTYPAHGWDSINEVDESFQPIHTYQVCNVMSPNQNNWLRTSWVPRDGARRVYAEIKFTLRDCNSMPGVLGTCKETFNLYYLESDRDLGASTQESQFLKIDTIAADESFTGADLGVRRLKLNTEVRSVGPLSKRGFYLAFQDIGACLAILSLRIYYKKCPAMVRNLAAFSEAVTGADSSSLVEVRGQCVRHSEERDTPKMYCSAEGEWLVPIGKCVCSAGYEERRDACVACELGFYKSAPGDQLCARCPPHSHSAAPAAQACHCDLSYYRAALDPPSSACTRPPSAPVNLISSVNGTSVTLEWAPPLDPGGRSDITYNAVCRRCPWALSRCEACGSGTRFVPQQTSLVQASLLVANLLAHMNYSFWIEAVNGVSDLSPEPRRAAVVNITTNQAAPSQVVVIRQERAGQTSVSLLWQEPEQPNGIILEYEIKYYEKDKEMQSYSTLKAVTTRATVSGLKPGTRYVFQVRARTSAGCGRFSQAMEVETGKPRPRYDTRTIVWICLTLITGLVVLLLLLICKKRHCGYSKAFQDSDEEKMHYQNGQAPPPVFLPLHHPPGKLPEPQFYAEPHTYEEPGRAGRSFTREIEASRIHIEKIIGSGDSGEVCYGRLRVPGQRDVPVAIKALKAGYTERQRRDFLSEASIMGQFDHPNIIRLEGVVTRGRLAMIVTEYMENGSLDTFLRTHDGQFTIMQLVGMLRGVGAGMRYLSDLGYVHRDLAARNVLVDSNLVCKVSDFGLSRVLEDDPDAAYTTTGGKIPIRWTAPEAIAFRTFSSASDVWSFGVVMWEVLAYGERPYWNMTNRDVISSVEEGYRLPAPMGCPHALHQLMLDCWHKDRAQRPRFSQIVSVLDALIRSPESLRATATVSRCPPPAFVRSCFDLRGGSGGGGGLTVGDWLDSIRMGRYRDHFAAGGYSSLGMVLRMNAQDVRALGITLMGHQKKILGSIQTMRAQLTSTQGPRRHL

[13] = biological target: Type-1 angiotensin II receptor (Homo sapiens) (UniProt P30556); assay: AT1/H Cerep selectivity data (BI); conditions: filed as antagonist, Compound concentration 20.0 uM
Type-1 angiotensin II receptor (Homo sapiens), sequence (P30556 whole entry): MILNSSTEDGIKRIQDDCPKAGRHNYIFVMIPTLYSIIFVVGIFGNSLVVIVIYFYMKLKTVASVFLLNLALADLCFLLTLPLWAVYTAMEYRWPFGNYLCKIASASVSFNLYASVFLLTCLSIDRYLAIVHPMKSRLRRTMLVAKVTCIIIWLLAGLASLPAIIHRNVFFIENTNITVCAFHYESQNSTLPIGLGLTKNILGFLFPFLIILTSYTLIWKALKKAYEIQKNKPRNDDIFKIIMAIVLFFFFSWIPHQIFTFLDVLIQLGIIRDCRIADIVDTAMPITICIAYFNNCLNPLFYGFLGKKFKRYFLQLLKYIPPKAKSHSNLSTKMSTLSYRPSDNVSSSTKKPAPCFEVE

[14] = biological target: Protein kinase C delta type (Homo sapiens) (UniProt Q05655); assay: PRKCD Invitrogen selectivity data (BI); conditions: Compound concentration 3.0 uM
[15] = biological target: Neuropeptide Y receptor type 1 (Homo sapiens) (UniProt P25929); assay: Y1/HUM Cerep selectivity data (BI); conditions: filed as antagonist, Compound concentration 20.0 uM
[16] = system: Tyrosine-protein kinase ABL1 (Homo sapiens), P00519 [G250E]; assay: ABL1 G250E Invitrogen selectivity data (BI); conditions: Compound concentration 3.0 uM
[17] = biological target: Histamine H1 receptor (Homo sapiens) (UniProt P35367); assay: H1/PYRIL/HS Cerep selectivity data (BI); conditions: Compound concentration 20.0 uM

Measured: residual activity

B1 bradykinin receptor (Homo sapiens), sequence (P46663 whole entry): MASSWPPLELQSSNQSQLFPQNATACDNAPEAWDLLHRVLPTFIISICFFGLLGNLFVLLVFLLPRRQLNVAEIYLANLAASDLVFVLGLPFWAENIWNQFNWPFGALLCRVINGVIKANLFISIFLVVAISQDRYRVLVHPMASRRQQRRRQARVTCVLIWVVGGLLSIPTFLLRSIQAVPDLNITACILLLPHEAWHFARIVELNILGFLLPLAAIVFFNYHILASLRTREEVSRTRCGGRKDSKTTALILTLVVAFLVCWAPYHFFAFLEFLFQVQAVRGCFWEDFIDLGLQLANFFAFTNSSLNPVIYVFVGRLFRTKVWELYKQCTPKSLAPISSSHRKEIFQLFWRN

CN(C)C(=O)Cn1cc(-c2nc([C@@](C)(c3ccc(-c4cnc(N)nc4)cc3)C3CC3)no2)cn1 [BI 665915]
inactive: [1] 112% | [2] 98% | [3] 98% | [4] 93% | [5] 87% | [6] 95% | [7] 97% | [8] 79% | [9] 97% | [10] 99.5% | [11] 82% | [12] 98.5% | [13] 108% | [14] 103% | [15] 104% | [16] 80% | [17] 89%
